Laboratory results: patent US12084445B2, “Broad-spectrum carbapenems” (VenatoRx Pharmaceuticals, Inc., priority 2018, dated 2024)

Legend:
Format in all cases: cell-based
[1] = tested on: S. aureus ATCC 33591 (methicillin-resistant); assay: broth microdilution MIC assay, S. aureus ATCC 33591; conditions: Staphylococcus aureus, ATCC 33591 / MRSA; Table 3; S. aureus 33591 (MRSA); read-out: S. aureus 33591 (MRSA) MIC
Protocol: (§1) To determine the ability of test compounds to potentiate the inhibition of the growth of bacterial strains, classic cell-based broth microdilution MIC assays were employed. MIC assays are performed according to CLSI methods except where otherwise noted (CLSI, 2011 and CLSI, 2009). The reference strains S. aureus ATCC 29213 (methicillin sensitive), S. aureus ATCC 33591 (methicillin-resistant), E. coli ATCC 25922 (wild-type/QC strain), P. aeruginosa ATCC 27853 (wild-type/QC strain), and the clinical isolate P. aeruginosa PA 8 were used to determine the ability of the exemplary carbapenem compounds to inhibit bacterial growth. An expanded panel of methicillin resistance S. aureus (MRSA) and Pseudomonas was also used to determine the ability of exemplary carbapenem compounds to inhibit bacterial growth across a broader representation of those species. To determine activity in MRSA and in addition to S. aureus ATCC 33591, S. aureus USA 300, USA 400 and USA 600, some of the most common clones found to cause human infection, were also used. To further gauge the impact on the carbapenem compounds due to various resistance mechanisms in Pseudomonas, the following strains were included: P. aeruginosa 35151 (hyper-permeable strain), P. aeruginosa AmexAB-OprM (an efflux pump knockout), and P. aeruginosa PA 3 (a clinical isolate of reduced carbapenem susceptibility). Briefly, cryo-preserved bacterial cultures of clinical strains are streaked for isolation on appropriate agar medium, in this case Mueller Hinton II agar. Following incubation to allow formation of colonies, these plates are sealed with parafilm and stored refrigerated for up to two weeks. For preparation of assay inocula and to ensure low variability, at least 5 colonies are picked from the agar plates with an inoculating loop and aseptically transferred to a culture tube containing 3 mL of Mueller-Hinton Broth (supplemented with divalent cations to required levels based on Manufacturers' specification). The broth culture is grown for 3-5 hours at 37° C. with shaking at 200 rpm. Meanwhile, 2-fold serial dilutions of test compounds are conducted in a 96 well plate with a final volume of 75 μL per well at 2-fold the final desired concentration. After the dilution plates are set up the growing cultures are then diluted in a cuvette containing MH II broth and the optical density is measured at 600 nm. Inocula are diluted such that 75 μL of this culture in Mueller-Hinton Broth results in a starting bacterial concentration of 5×10^5 CFU/mL when added to the dilution plates. The plates are incubated 16-20 hours at 37° C. The MIC is read visually as the lowest concentration well with no bacterial growth.
(§2) Representative results are shown in Tables 3, 4, and 5 where A represents an MIC>32 μg/mL, B represents an MIC between 8 and 32 μg/mL inclusive, C represents an MIC between 1 and 4 μg/mL inclusive, and D represents an MIC of <1 μg/mL. NT=Not Tested.

[2] = tested on: E. coli ATCC 25922 (wild-type/QC strain); assay: broth microdilution MIC assay, E. coli ATCC 25922; conditions: Escherichia coli, ATCC25922; Table 3; E. coli 25922; read-out: E. coli 25922 MIC
Protocol: as §1, §2

[3] = tested on: P. aeruginosa ATCC 27853 (wild-type/QC strain); assay: broth microdilution MIC assay, P. aeruginosa ATCC 27853; conditions: Pseudomonas aeruginosa, ATCC27853; Table 3; P. aeruginosa 27853; read-out: P. aeruginosa 27853 MIC
Protocol: as §1, §2

[4] = tested on: clinical isolate P. aeruginosa PA 8; assay: broth microdilution MIC assay, P. aeruginosa PA 8; conditions: Pseudomonas aeruginosa; Table 3; P. aeruginosa PA8
Protocol: as §1, §2

C[C@@H](O)[C@H]1C(=O)N2C(C(=O)O)=C(S[C@@H]3CCN(C4CCC(NCCCB(O)O)CC4)C3)[C@H](C)[C@H]12 (stereo partly drawn) [Example 3, (4R,5S,6S)-3-(((R)-1-(4-((3-boronopropyl)amino)cyclohexyl)pyrrolidin-3-yl)thio)-6-((R)-1-hydroxyethyl)-4-methyl-7-oxo-1-azabicyclo[3.2.0]hept-2-ene-2-carboxylic acid]
MIC [1]: 8 to 32 µg/mL
MIC [2]: < 1 µg/mL
MIC [3]: 8 to 32 µg/mL
MIC [4]: 8 to 32 µg/mL

C[C@@H](O)[C@H]1C(=O)N2C(C(=O)O)=C(S[C@@H]3CCN(C[C@H]4CC[C@H](CN)CC4)C3)[C@H](C)[C@H]12 [Example 17, (4R,5S,6S)-3-(((R)-1-(((1r,4R)-4-(aminomethyl)cyclohexyl)methyl)pyrrolidin-3-yl)thio)-6-((R)-1-hydroxyethyl)-4-methyl-7-oxo-1-azabicyclo[3.2.0]hept-2-ene-2-carboxylic acid]
MIC [1]: 8 to 32 µg/mL
MIC [2]: < 1 µg/mL
MIC [3]: 1 to 4 µg/mL
MIC [4]: 1 to 4 µg/mL

CNC[C@H]1CC[C@H](CN2CC[C@@H](SC3=C(C(=O)O)N4C(=O)[C@H]([C@@H](C)O)[C@H]4[C@H]3C)C2)CC1 [Example 18, (4R,5S,6S)-6-((R)-1-hydroxyethyl)-4-methyl-3-(((R)-1-(((1r,4R)-4-((methylamino)methyl)cyclohexyl)methyl)pyrrolidin-3-yl)thio)-7-oxo-1-azabicyclo[3.2.0]hept-2-ene-2-carboxylic acid]
MIC [1]: 8 to 32 µg/mL
MIC [2]: < 1 µg/mL
MIC [3]: 1 to 4 µg/mL
MIC [4]: 1 to 4 µg/mL

C[C@@H](O)[C@H]1C(=O)N2C(C(=O)O)=C(S[C@@H]3CCN(CCN4CCNCC4)C3)[C@H](C)[C@H]12 [Example 20, (4R,5S,6S)-6-((R)-1-hydroxyethyl)-4-methyl-7-oxo-3-(((R)-1-(2-(piperazin-1-yl)ethyl)pyrrolidin-3-yl)thio)-1-azabicyclo[3.2.0]hept-2-ene-2-carboxylic acid]
MIC [1]: 8 to 32 µg/mL
MIC [2]: < 1 µg/mL
MIC [3]: 1 to 4 µg/mL
MIC [4]: 1 to 4 µg/mL

CN[C@H]1CC[C@H](CN2CC[C@@H](SC3=C(C(=O)O)N4C(=O)[C@H]([C@@H](C)O)[C@H]4[C@H]3C)C2)CC1 [Example 21, (4R,5S,6S)-6-((R)-1-hydroxyethyl)-4-methyl-3-(((R)-1-(((1r,4R)-4-(methylamino)cyclohexyl)methyl)pyrrolidin-3-yl)thio)-7-oxo-1-azabicyclo[3.2.0]hept-2-ene-2-carboxylic acid]
MIC [1]: 8 to 32 µg/mL
MIC [2]: < 1 µg/mL
MIC [3]: 1 to 4 µg/mL
MIC [4]: 1 to 4 µg/mL

C[C@@H](O)[C@H]1C(=O)N2C(C(=O)O)=C(S[C@@H]3CCN([C@H]4CC[C@@H](N)CC4)C3)[C@H](C)[C@H]12 [Example 23, (4R,5S,6S)-3-(((R)-1-((1r,4R)-4-aminocyclohexyl)pyrrolidin-3-yl)thio)-6-((R)-1-hydroxyethyl)-4-methyl-7-oxo-1-azabicyclo[3.2.0]hept-2-ene-2-carboxylic acid]
MIC [1]: 8 to 32 µg/mL
MIC [2]: < 1 µg/mL
MIC [3]: 1 to 4 µg/mL
MIC [4]: 1 to 4 µg/mL

CC(C1CCNCC1)N1CC[C@@H](SC2=C(C(=O)O)N3C(=O)[C@H]([C@@H](C)O)[C@H]3[C@H]2C)C1 (stereo partly drawn) [Example 25, (4R,5S,6S)-6-((R)-1-hydroxyethyl)-4-methyl-7-oxo-3-(((3R)-1-(1-(piperidin-4-yl)ethyl)pyrrolidin-3-yl)thio)-1-azabicyclo[3.2.0]hept-2-ene-2-carboxylic acid]
MIC [1]: 8 to 32 µg/mL
MIC [2]: < 1 µg/mL
MIC [3]: 8 to 32 µg/mL
MIC [4]: 1 to 4 µg/mL

C[C@@H](O)[C@H]1C(=O)N2C(C(=O)O)=C(S[C@@H]3CCN(CC4CCN(CCN)CC4)C3)[C@H](C)[C@H]12 [Example 26, (4R,5S,6S)-3-(((R)-1-((1-(2-aminoethyl)piperidin-4-yl)methyl)pyrrolidin-3-yl)thio)-6-((R)-1-hydroxyethyl)-4-methyl-7-oxo-1-azabicyclo[3.2.0]hept-2-ene-2-carboxylic acid]
MIC [1]: > 32 µg/mL
MIC [2]: < 1 µg/mL
MIC [3]: 1 to 4 µg/mL
MIC [4]: 1 to 4 µg/mL

C[C@@H](O)[C@H]1C(=O)N2C(C(=O)O)=C(S[C@@H]3CCN(C4CCN(CCN)CC4)C3)[C@H](C)[C@H]12 [Example 27, (4R,5S,6S)-3-(((R)-1-(1-(2-aminoethyl)piperidin-4-yl)pyrrolidin-3-yl)thio)-6-((R)-1-hydroxyethyl)-4-methyl-7-oxo-1-azabicyclo[3.2.0]hept-2-ene-2-carboxylic acid]
MIC [1]: 8 to 32 µg/mL
MIC [2]: < 1 µg/mL
MIC [3]: 1 to 4 µg/mL
MIC [4]: 1 to 4 µg/mL

CC1CC(CN2CC[C@@H](SC3=C(C(=O)O)N4C(=O)[C@H]([C@@H](C)O)[C@H]4[C@H]3C)C2)CCN1 (stereo partly drawn) [Example 28, (4R,5S,6S)-6-((R)-1-hydroxyethyl)-4-methyl-3-(((3R)-1-((2-methylpiperidin-4-yl)methyl)pyrrolidin-3-yl)thio)-7-oxo-1-azabicyclo[3.2.0]hept-2-ene-2-carboxylic acid]
MIC [1]: 8 to 32 µg/mL
MIC [2]: < 1 µg/mL
MIC [3]: 8 to 32 µg/mL
MIC [4]: 1 to 4 µg/mL

CNCc1ccc(CN2CC[C@@H](SC3=C(C(=O)O)N4C(=O)[C@H]([C@@H](C)O)[C@H]4[C@H]3C)C2)cn1 [Example 29, (4R,5S,6S)-6-((R)-1-hydroxyethyl)-4-methyl-3-(((R)-1-((6-((methylamino)methyl)pyridin-3-yl)methyl)pyrrolidin-3-yl)thio)-7-oxo-1-azabicyclo[3.2.0]hept-2-ene-2-carboxylic acid]
MIC [1]: 8 to 32 µg/mL
MIC [2]: < 1 µg/mL
MIC [3]: 8 to 32 µg/mL
MIC [4]: 1 to 4 µg/mL

C[C@@H](O)[C@H]1C(=O)N2C(C(=O)O)=C(S[C@@H]3CCN(CC4CCNC(CN)C4)C3)[C@H](C)[C@H]12 (stereo partly drawn) [Example 30, (4R,5S,6S)-3-(((3R)-1-((2-(aminomethyl)piperidin-4-yl)methyl)pyrrolidin-3-yl)thio)-6-((R)-1-hydroxyethyl)-4-methyl-7-oxo-1-azabicyclo[3.2.0]hept-2-ene-2-carboxylic acid]
MIC [1]: 8 to 32 µg/mL
MIC [2]: < 1 µg/mL
MIC [3]: 8 to 32 µg/mL
MIC [4]: 1 to 4 µg/mL

C[C@@H](O)[C@H]1C(=O)N2C(C(=O)O)=C(S[C@@H]3CCN(Cc4ccc(CN)c(CN)c4)C3)[C@H](C)[C@H]12 [Example 31, (4R,5S,6S)-3-(((R)-1-(3,4-bis(aminomethyl)benzyl)pyrrolidin-3-yl)thio)-6-((R)-1-hydroxyethyl)-4-methyl-7-oxo-1-azabicyclo[3.2.0]hept-2-ene-2-carboxylic acid]
MIC [1]: 1 to 4 µg/mL
MIC [2]: < 1 µg/mL
MIC [3]: 8 to 32 µg/mL
MIC [4]: 8 to 32 µg/mL

C[C@@H](O)[C@H]1C(=O)N2C(C(=O)O)=C(S[C@@H]3CCN(CC4CNCCN4S(C)(=O)=O)C3)[C@H](C)[C@H]12 (stereo partly drawn) [Example 32, (4R,5S,6S)-6-((R)-1-hydroxyethyl)-4-methyl-3-(((3R)-1-((1-(methylsulfonyl)piperazin-2-yl)methyl)pyrrolidin-3-yl)thio)-7-oxo-1-azabicyclo[3.2.0]hept-2-ene-2-carboxylic acid]
MIC [1]: 8 to 32 µg/mL
MIC [2]: 8 to 32 µg/mL
MIC [3]: 8 to 32 µg/mL
MIC [4]: 8 to 32 µg/mL

C[C@@H](O)[C@H]1C(=O)N2C(C(=O)[O-])=C(S[C@@H]3CC[N+](C)(CC4CCNCC4)C3)[C@H](C)[C@H]12 (stereo partly drawn) [Example 33, (4R,5S,6S)-6-((R)-1-hydroxyethyl)-4-methyl-3-(((3R)-1-methyl-1-(piperidin-4-ylmethyl)pyrrolidin-1-ium-3-yl)thio)-7-oxo-1-azabicyclo[3.2.0]hept-2-ene-2-carboxylate]
MIC [1]: 8 to 32 µg/mL
MIC [2]: < 1 µg/mL
MIC [3]: 1 to 4 µg/mL
MIC [4]: 1 to 4 µg/mL
